Laboratory results from ChEMBL document CHEMBL1201862, “PubChem BioAssay data set” (2004).
Active and inactive are the calls of the source.

Columns and labels:
[1] = biological target: T1, Bcl-2-related protein A1 (Mus musculus, UniProt Q07440); test: small-molecule antagonists of Bfl-1/BH3 interaction – biochemical, TR-FRET, mouse Bfl-1, confirmation (AID 621);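 further: TR-FRET binding of GST-Bfl-1 to FITC-labelled Bid peptide via terbium antibody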
T1 sequence (Q07440 whole entry): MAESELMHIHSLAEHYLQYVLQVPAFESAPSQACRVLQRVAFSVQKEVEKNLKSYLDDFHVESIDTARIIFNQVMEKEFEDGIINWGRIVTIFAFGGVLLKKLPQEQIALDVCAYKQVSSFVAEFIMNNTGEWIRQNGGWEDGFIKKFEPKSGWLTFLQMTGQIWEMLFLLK

[2] = biological target: T1, Bcl-2-related protein A1; test: Bfl-1 binding inhibitors, SAR follow-up, biochemical, fluorescence polarization (AID 1070)
[3] = biological target: Glyceraldehyde-3-phosphate dehydrogenase (Homo sapiens, UniProt P04406)
[4] = biological target: Protein Tat (Human immunodeficiency virus type 1 group M subtype B (isolate HXB2)(HIV-1), UniProt P04608); format: functional;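 further: tat binding to TAR RNA read out by fluorescence polarization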
[5] = cells; details: A549
[6] = biological target: Aryl hydrocarbon receptor (Homo sapiens, UniProt P35869); test: Luminescence-based cell-based high throughput dose response assay for activators of the Aryl Hydrocarbon Receptor (AHR). [Related pubchem assays: 2796 (Primary screen (AHR activators in singlicate)), 2845 (Confirmation screen (AHR activators in triplicate)), 434939 (Counterscreen (PXR activators in triplicate)), 2804 (Summary (AHR activators))]; format: ADME
[7] = viability loss in HEK293 cells – cell-based, plate reader, cherry-picked samples, cytotoxicity control, dose response (AID 743446); format: functional
[8] = viability loss in THP-1 monocytes – THP-1 cells, cytotoxicity control for Vif-APOBEC3G degradation inhibitor project, dose response (AID 1117359); format: functional; details: THP-1
[9] = blockade of melanocortin 4 receptor signaling – cell-based, plate reader, cherry pick, counter-screen for LGR2 antagonist project, dose response (AID 743444); format: functional;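 further: transfected HEK 293 cells stimulated with alpha-MSH peptide; potency of inhibitors of the alpha-MSH evoked signal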
[10] = blockers of bursicon-stimulated LGR2 cAMP reporter – cell-based, HEK293, CRE-luciferase reporter, cherry pick, set 2, dose response (AID 743343); format: functional;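 further: transfected cells were stimulated with diluted bursicon conditioned medium after compound addition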
[11] = A549 cell cytotoxicity, dose response, cytotoxicity control, plate reader, cherry-pick, antagonist series (AID 743412); format: functional, cell-based
[12] = HIV-1 AD8 envelope cell-cell fusion blockers – cherry-pick, dose response (AID 652062); format: functional, cell-based;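 further: luciferase signal from cell-cell fusion driven by HIV-1 clade B AD8 Env; potency is for inhibitors of fusion seen as a drop in luminescence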
[13] = blockers of HIV-1 ZM109 envelope-driven cell-cell fusion – HeLa effector, CEM target cells, luciferase, cherry-pick, dose response (AID 652058); format: functional, cell-based;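 further: luciferase signal from HIV-1 Env mediated cell-cell fusion of effector and target cells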
[14] = viability loss in CEM21 cells – cell-based, CellTiter-Glo luminescence, cherry-picked, cytotoxicity control for viral fusion inhibitor project, dose response (AID 652042); format: functional;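 further: potency for signal decrease meaning cytotoxicity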
[15] = biological target: T2, COUP transcription factor 2 (Homo sapiens, UniProt P24468); test: Luminescence-based cell-based high throughput dose response assay to identify inhibitors of COUP-TFII (NR2F2).; format: functional;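 further: HEK293 cells transiently cotransfected with COUP-TFII expression vector and reporter; luciferase reporter luminescence driven by COUP-TFII from the pX2-168 reporter plasmid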
T2 sequence (P24468 whole entry): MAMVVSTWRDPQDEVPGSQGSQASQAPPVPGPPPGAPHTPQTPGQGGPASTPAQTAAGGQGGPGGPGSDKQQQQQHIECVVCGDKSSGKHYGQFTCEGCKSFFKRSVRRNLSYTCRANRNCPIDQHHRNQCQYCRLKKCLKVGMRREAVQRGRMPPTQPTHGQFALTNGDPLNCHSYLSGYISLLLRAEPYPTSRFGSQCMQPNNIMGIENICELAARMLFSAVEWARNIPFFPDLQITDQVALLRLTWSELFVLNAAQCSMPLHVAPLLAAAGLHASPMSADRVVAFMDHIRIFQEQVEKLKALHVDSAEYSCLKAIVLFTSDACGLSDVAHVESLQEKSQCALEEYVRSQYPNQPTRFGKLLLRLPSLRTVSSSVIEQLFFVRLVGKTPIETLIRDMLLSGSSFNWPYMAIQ

[16] = system: H9c2; test: cells; format: functional, cell-based; details: Rattus norvegicus, H9c2, Myocardium;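 further: confirmatory concentration-response retest of ultra-high-throughput screening hits for modulation of myocardial damage; cell death induced by hydrogen peroxide oxidative stress; compound pretreatment for 60 min then peroxide exposure for 2 h; potency is for protecting the cells against peroxide damage rather than for killing them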
[17] = Luminescence Cell-Based Dose Response HTS to Identify Activators of Luciferase Translation or Activity in H4 […] Cells. [Related pubchem assays: 1829 (Project Summary), 1814 (Primary HTS)]; format: functional
[18] = Luminescence Cell-Based Dose Confirmation HTS to Identify Activators of 5'UTR Stem-Loop Driven Alpha-Synuclein mRNA Translation in H4 Neuroglioblastoma Cells. [Related pubchem assays: 1829 (Project Summary), 1814 (Primary HTS)]; format: functional
[19] = system: H4; test: Luminescence Cell-Based Dose Response HTS to Identify Activators of 5'UTR Stem-Loop Driven Prion Protein mRNA Translation in H4 Neuroglioblastoma Cells. [Related pubchem assays: 1829 (Project Summary), 1814 (Primary HTS)]; format: functional; details: Homo sapiens
[20] = biological target: T3, Oxysterols receptor LXR-beta (Homo sapiens, UniProt P55055); format: functional, cell-based;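 further: agonist activity at LXR measured by a cell-based luminescence readout across a dose range, run as a counterscreen for daf-12 agonists; HEK293 cells with Gal4-LXR fusion and GAL4-driven luciferase reporter; potency for activation of Gal4-LXR reporter so compounds are agonists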
T3 sequence (P55055 whole entry): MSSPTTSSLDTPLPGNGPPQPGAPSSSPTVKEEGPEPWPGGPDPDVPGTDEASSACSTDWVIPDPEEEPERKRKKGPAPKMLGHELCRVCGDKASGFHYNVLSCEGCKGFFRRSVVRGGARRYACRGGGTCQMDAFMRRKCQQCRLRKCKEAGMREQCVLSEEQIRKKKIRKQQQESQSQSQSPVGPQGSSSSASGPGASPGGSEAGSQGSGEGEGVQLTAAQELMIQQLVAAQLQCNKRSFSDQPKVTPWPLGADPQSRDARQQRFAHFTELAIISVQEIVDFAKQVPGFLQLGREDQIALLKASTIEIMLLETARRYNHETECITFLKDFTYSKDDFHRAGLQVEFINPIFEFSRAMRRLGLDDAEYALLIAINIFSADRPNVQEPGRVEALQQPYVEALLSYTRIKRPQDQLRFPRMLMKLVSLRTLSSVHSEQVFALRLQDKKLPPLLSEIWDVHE

Aryl hydrocarbon receptor, sequence (P35869 whole entry): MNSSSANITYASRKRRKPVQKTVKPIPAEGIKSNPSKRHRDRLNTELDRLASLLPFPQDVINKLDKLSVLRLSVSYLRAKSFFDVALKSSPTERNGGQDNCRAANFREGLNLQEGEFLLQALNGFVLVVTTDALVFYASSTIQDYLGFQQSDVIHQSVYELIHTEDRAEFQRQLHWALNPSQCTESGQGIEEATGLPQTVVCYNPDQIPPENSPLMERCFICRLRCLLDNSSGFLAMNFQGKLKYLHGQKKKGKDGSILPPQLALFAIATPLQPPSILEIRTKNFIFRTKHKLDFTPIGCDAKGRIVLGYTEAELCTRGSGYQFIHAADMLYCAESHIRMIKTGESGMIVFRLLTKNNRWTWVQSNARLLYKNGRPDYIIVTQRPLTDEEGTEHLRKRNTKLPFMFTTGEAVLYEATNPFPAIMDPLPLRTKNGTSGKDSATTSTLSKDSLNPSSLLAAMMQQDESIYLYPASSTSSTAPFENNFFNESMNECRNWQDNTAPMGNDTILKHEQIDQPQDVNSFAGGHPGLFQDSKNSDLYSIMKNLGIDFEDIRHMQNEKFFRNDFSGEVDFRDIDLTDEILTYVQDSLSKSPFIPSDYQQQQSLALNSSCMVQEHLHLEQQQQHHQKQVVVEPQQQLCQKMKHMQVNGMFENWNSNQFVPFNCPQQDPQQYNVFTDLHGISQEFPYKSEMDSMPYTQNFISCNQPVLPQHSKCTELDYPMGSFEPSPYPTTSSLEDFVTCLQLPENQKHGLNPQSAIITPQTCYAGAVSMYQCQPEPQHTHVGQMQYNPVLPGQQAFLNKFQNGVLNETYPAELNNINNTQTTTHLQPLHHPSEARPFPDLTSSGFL
Glyceraldehyde-3-phosphate dehydrogenase, sequence (P04406 whole entry): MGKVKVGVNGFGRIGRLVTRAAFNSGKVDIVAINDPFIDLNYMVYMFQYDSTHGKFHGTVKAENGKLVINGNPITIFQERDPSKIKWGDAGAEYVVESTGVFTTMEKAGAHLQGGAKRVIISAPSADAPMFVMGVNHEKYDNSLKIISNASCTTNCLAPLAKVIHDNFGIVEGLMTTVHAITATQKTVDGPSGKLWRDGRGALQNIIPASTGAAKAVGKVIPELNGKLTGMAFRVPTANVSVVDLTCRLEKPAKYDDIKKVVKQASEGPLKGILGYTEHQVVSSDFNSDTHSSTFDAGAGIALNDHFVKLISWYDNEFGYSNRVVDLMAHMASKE
Protein Tat, sequence (P04608 whole entry): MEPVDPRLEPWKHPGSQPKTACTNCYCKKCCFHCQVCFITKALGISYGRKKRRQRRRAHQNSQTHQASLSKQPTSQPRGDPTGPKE

Which results are given for `O=C1C(Cl)=C(N2CCN(Cc3ccccc3)CC2)C(=O)N1c1ccc(Cl)c(Cl)c1`?
IC50 [1]: 1.64 µM (active); IC50 [2]: 1.62 µM (active); IC50 [3]: > 100 µM (not active)

For `Cc1cc(C(=O)CSc2nnc(-c3ccccc3)n2Cc2ccc3c(c2)OCO3)c(C)n1C`, which IC50 [4] is on record?
Its IC50 is > 100 µM (active).

Which AC50 [5] does the source give for `COc1ccc(C2CC(c3ccccc3)=NN2c2ccc(C(N)=O)cc2)cc1` (stereo not given) here?
Its AC50 is 39.1 µM (active).

With `CC(=O)c1ccc(NC(=O)c2cc(Cl)nc3ccccc23)cc1` as the molecule, how does the EC50 [6] read?
The EC50 was 1.66 µM (active).

For `CN(C)c1nc(N)nc(-c2nc3ccccc3s2)n1`, which EC50 [6] is on record?
The EC50 was 0.845 µM (active).

For `Cc1cc(-c2ccccc2)nc(S(C)(=O)=O)n1`, which IC50 [1] is on record?
The IC50 was > 100 µM (not active).

And the IC50 [2]?
The IC50 was > 100 µM (not active).

What about the IC50 [3] of the same molecule?
The IC50 was > 100 µM (not active).

With `COc1ccc(Nc2ncc(F)c(N3CCOCC3)n2)cc1` as the molecule, how does the AC50 [7] read?
The AC50 was > 52 µM (inactive).

What about the CC50 [8] of the same molecule?
The CC50 was > 40 µM (active).

What about the AC50 [9] of the same molecule?
Its AC50 is 10.2 µM (active).

And the AC50 [10]?
Its AC50 is 18 µM (active).

What about the AC50 [11] of the same molecule?
The AC50 was > 52 µM (inactive).

For `Cc1ccc(Cn2ncc3c(N4CCN(Cc5ccc(Cl)cc5)CC4)ncnc32)cc1`, which AC50 [12] is on record?
The AC50 was 3.86 µM (active).

What about the AC50 [13] of the same molecule?
The AC50 was 606 nM (active).

What about the AC50 [14] of the same molecule?
Its AC50 is 52 µM (active).

And the IC50 [15]?
The IC50 was 10.6 µM (inactive).

With `CCOc1ccc2nc(O)c(CN(Cc3nnnn3Cc3ccco3)C3CCCCC3)cc2c1` as the molecule, how does the CC50 [8] read?
Its CC50 is > 40 µM (active).

What about the IC50 [16] of the same molecule?
Its IC50 is 25.5 µM (active).

With `CC1=CN2C(=N)/C(=C/c3ccco3)C(=O)N=C2S1` as the molecule, how does the EC50 [17] read?
Its EC50 is 6.38 µM (active).

And the EC50 [18]?
Its EC50 is 5.22 µM (active).

What about the EC50 [19] of the same molecule?
The EC50 was 1.63 µM (active).

And the EC50 [20]?
The EC50 was > 67.5 µM (inactive).
